For one data set, the system named is hIL-6 mRNA. Nature of the data set: Inhibition of hIL-6 mRNA transcription in LPS-stimulated U937 macrophages. Details: key: Active: Compounds with an IC50 value less than 30 μM are deemed to be active.; Not Active: Compounds with an IC50 value less than 30 μM are deemed to be active. Particulars: U937 cells differentiated with PMA, 1 h pretreatment, LPS 3 h. The data set is classed as cell-based, human. Summed up: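 U937 cells differentiated to macrophages with 60 ng/mL PMA for 3 days, pretreated 1 h with compound, then stimulated with 1 ug/mL E. coli LPS for 3 h at 37° C. IL-6 mRNA measured by one-step qRT-PCR, Ct normalized to internal control, expressed as fold induction relative to control.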

For another data set, the system named is Human AML MV-4-11 cells. The data set can be described thus: Inhibition of cell proliferation in MV4-11 cells. Details: key: Active: Compounds with an IC50 value less than 30 μM are deemed to be active.; Not Active: Compounds with an IC50 value less than 30 μM are deemed to be active. The settings on record: 72 hours. The data set is classed as cell-based. In short, it runs like this: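 Exponentially growing MV-4-11 cells were treated immediately with two-fold compound dilutions from 30 µM to 0.2 µM in triplicate for 72 h at 37 °C. Viability was read by MTS (CellTiter Aqueous One) absorbance at 490 nm after 3-4 h; % proliferation vs DMSO gave IC50.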

For another data set, the system named is c-myc. Nature of the data set: Inhibition of c-myc expression (mRNA, real-time PCR) in MV4-11 cells. The settings on record: Human AML MV4-11 cells, 3 hours. The data set is classed as cell-based. Further details: key: Active: Compounds with an IC50 value less than 30 μM were deemed to be active.; Not Active: Compounds with an IC50 value less than 30 μM were deemed to be active. In short, it runs like this: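 MV4-11 cells (2.5×10^4) exposed to compound or 0.1% DMSO for 3 h at 37° C, then lysed for mRNA isolation. c-myc and cyclophilin cDNAs co-amplified by duplex RT real-time PCR. IC50 from dose-response curve.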
Background: In qPCR the cycle at which signal appears reflects the starting amount.

The target of another data set is T1, Brd4 bromodomain 1 (Homo sapiens, UniProt O60885).
T1 construct: made in house; host or cells: E. coli BL21(DE3)
Nature of the data set: Inhibition of tetra-acetylated histone H4 binding to BET bromodomain (TR-FRET). Further details: key: Active: Compounds with an IC50 value less than 30 μM were deemed to be active.; Not Active: Compounds with an IC50 value less than 30 μM were deemed to be active. Particulars: Brd4 bromodomain 1, tetra-acetylated histone H4 peptide. Summed up: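 N-terminally His-tagged bromodomain (200 nM, E. coli-expressed, Ni affinity and SEC purified) with biotinylated tetra-acetylated H4 peptide (25-50 nM), Eu-cryptate streptavidin and XL665 anti-His; 2 h at room temperature in HEPES pH 7.4/KF buffer, 0.2% DMSO. The 665/620 nm ratio decrease gave IC50 from dose-response curves.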
On the technique in general: In TR-FRET formats the signal depends on donor and acceptor labels being close together.

Another data set relates to hApoA-1 mRNA. Nature of the data set: Up-regulation of hApoA-1 mRNA transcription in Huh7 cells. The data set is classed as cell-based, human. Further details: key: Active: Compounds with an EC170 value less than 30 μM are deemed to be active.; Not Active: Compounds with an EC170 value less than 30 μM are deemed to be active. The settings on record: 48 hrs treatment, ApoA-I mRNA. In short, it runs like this:
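Huh7 cells plated 24 h before compound, then treated 48 h; mRNA isolated from lysates and ApoA-I quantified by one-step real-time PCR. Fold induction derived from Ct values relative to the matching DMSO control; EC170 reported as activity measure.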

These results are taken from patent publication US9278940B2, “Cyclic amines as bromodomain inhibitors” (Zenith Epigenetics Corp., priority 2012, dated 2016).

Broadly, the melting point is the temperature, or range, at which the solid turns liquid.

For the compound `COc1cc(OC)c2c(=O)[nH]c(-c3cccc(N4CCN(C(C)CO)CC4)n3)nc2c1` (stereo not drawn) [Example 8, 2-(6-(4-(1-Hydroxypropan-2-yl)piperazin-1-yl)pyridin-2-yl)-5,7-dimethoxyquinazolin-4(3H)-one], the melting point lay in the range of 202 to 204 °C. Further, in the data set on hIL-6 mRNA, the “IL-6 activity (IC50 < 30 μM)” value is on record as “Active”. In addition, the “cell proliferation activity (IC50 < 30 μM)” value (“cell proliferation activity” for short) with Human AML MV-4-11 cells is recorded as “Active”. Further, the “c-myc activity (IC50 < 30 μM)” value in the data set with c-myc is reported as “Active”. Also, the “FRET activity (IC50 < 30 μM)” value on Brd4 bromodomain 1 is on record as “Active”. Besides, in the data set with hApoA-1 mRNA, the “ApoA-1 activity (EC170 < 30 μM)” value was “Active”.
Compound `COc1cc(OC)c2c(=O)[nH]c(-c3cccc(N4CCN(C(C)C(N)=O)CC4)n3)nc2c1` (stereo not drawn) [Example 9, 2-(4-(6-(5,7-Dimethoxy-4-oxo-3,4-dihydroquinazolin-2-yl)pyridin-2-yl)piperazin-1-yl)propanamide] returned a melting point of 149 to 150 °C. Moreover, in the data set on hIL-6 mRNA, the “IL-6 activity (IC50 < 30 μM)” value is listed as “Not Active”. Besides, the “cell proliferation activity” value in the data set on Human AML MV-4-11 cells is on record as “Active”. In addition, in the data set with c-myc, the “c-myc activity (IC50 < 30 μM)” value is listed as “Not Active”. At Brd4 bromodomain 1, the “FRET activity (IC50 < 30 μM)” value was “Active”. Also, the “ApoA-1 activity (EC170 < 30 μM)” value in the data set with hApoA-1 mRNA is listed as “Active”.
The compound `COc1cc(OC)c2c(=O)[nH]c(-c3ccc(OC)c(N4CCN(C(C)C)CC4)n3)nc2c1` [Example 14, 2-(6-(4-Isopropylpiperazin-1-yl)-5-methoxypyridin-2-yl)-5,7-dimethoxyquinazolin-4(3H)-one] displayed a melting point of 208 to 210 °C. Besides, the “IL-6 activity (IC50 < 30 μM)” value in the data set on hIL-6 mRNA is recorded as “Not Active”. In addition, the “cell proliferation activity” value in the data set on Human AML MV-4-11 cells is given as “Active”. Moreover, in the data set on c-myc, the “c-myc activity (IC50 < 30 μM)” value is listed as “Active”. Also, the “FRET activity (IC50 < 30 μM)” value at Brd4 bromodomain 1 is on record as “Active”. Also, in the data set on hApoA-1 mRNA, the “ApoA-1 activity (EC170 < 30 μM)” value is given as “Active”.
